In US9926297B2, “Bicyclic AZA compounds as muscarinic M1 receptor and/or M4 receptor agonists” (Heptares Therapeutics Limited, priority 2014, dated 2018):
Where two headings read alike, the source gives them in different places.

Experiments:
[1] = molecular target: T1, human muscarinic M4 receptor (Homo sapiens, UniProt P08173); assay: Alphascreen Surefire phospho-ERK1/2 functional assay, M4; type: cell-based; conditions: for EC50: CHO cells stably expressing human M4, phospho-ERK1/2, * = variable results, read-out: pEC50 M4 (converted); for Emax: CHO
T1 construct: expressed in transfected cells
T1 sequence (P08173 1-479): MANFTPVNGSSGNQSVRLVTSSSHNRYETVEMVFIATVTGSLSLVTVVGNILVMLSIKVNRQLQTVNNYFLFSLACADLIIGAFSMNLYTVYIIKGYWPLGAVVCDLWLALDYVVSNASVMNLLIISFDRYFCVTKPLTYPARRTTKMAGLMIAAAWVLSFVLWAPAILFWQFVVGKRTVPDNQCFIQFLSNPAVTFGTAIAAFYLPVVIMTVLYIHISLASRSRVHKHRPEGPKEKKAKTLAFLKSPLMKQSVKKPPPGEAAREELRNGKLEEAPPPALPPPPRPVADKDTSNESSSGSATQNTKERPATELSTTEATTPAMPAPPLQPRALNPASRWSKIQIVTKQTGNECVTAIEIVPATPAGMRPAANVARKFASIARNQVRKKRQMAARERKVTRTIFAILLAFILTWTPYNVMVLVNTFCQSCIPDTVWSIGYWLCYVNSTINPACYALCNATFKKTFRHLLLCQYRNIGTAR

[2] = molecular target: T2, human muscarinic M1 receptor (Homo sapiens, UniProt P11229); assay: Alphascreen Surefire phospho-ERK1/2 functional assay, M1; type: cell-based; conditions: for EC50: phospho-ERK1/2, * = variable results, read-out: pEC50 M1 (converted); for Emax: CHO
T2 sequence (P11229 1-460): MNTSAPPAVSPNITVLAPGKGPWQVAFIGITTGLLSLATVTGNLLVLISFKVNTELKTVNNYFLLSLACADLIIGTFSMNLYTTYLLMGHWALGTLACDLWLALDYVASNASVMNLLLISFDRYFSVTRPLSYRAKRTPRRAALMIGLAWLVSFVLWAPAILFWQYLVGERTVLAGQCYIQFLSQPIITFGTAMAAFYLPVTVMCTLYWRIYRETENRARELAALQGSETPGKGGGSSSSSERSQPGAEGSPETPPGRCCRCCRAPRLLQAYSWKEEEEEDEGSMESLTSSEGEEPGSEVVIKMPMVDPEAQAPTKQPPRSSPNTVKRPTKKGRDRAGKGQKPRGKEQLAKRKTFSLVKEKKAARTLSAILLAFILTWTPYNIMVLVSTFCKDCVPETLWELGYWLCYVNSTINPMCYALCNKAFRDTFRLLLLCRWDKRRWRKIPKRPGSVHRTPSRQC

[3] = read-out: % Emax cf. ACh, M4, CHO cells stably expressing human M4, relative to ACh
[4] = CHO cells stably expressing human M1
[5] = read-out: % Emax cf. ACh, M1, CHO cells stably expressing human M1, relative to ACh

Row | Structure (SMILES) | EC50 [1] [nM] | Emax [1, 3] [%] | EC50 [2, 4] [nM] | Emax [2, 5] [%] | % Emax cf. ACh, M1 ([2]; CHO cells stably expressing human M1, relative to ACh) [%] | Emax ([1]; read-out: % Emax cf. ACh, M4) [%] | Emax ([2]; read-out: % Emax cf. ACh, M1) [%]
1 | CCOC(=O)N1CCC2(CC(N3CCC(N4CCCC[C@@H]4C(=O)N(C)C)CC3)C2)C1 (single isomer, unassigned) [4-17 Isomer 2] | 251 | 106 | > 20000 | 27 |  |  | 
2 | CCOC(=O)N1CCC2(CC(N3CCC(N4CCCC4c4nnn(C)n4)CC3)C2)C1 (single isomer, unassigned) [2-129 Isomer 2, ethyl 2-{4-[2-(2-methyl-2H-tetrazol-5-yl)pyrrolidin-1-yl]piperidin-1-yl}-6-azaspiro[3.4]octane-6-carboxylate] | 100 | 55 | > 20000 | 12 |  |  | 
3 | CCOC(=O)N1CCC2(CC(N3CCC(N4C[C@H](F)C[C@@H]4C(=O)OC)CC3)C2)C1 (single isomer, unassigned) [2-134 Isomer 2] | 63.1 | 95 | > 20000 | 18 |  |  | 
4 | CCOC(=O)N1CCC2(CC(N3CCC(N4CCCC[C@H]4C(=O)NC)CC3)C2)C1 (single isomer, unassigned) [4-18 Isomer 2] | 631 | 79 | 3160 | 76 |  |  | 
5 | CCCn1nccc1C1CCN(C2CC3(CCN(C(=O)OC)C3)C2)CC1 (single isomer, unassigned) [1-48 Isomer 2, methyl 2-[4-(1-propyl-1H-pyrazol-5-yl)piperidin-1-yl]-6-azaspiro[3.4]octane-6-carboxylate] | 631 | 68 | > 20000 | 63 |  |  | 
6 | CCOC(=O)N1CCC2(CC(N3CCC(N4C(=O)OC[C@H]4C)CC3)C2)C1 (single isomer, unassigned) [2-118 Isomer 2] | 126 | 84 | > 20000 | 33 |  |  | 
7 | CCOC(=O)N1CCC2(CC(N3CCC(N4CCC[C@@H]4c4nccs4)CC3)C2)C1 (single isomer, unassigned) [2-132 Isomer 2] | 12.6 | 72 | > 20000 | 18 |  |  | 
8 | CCOC(=O)N1CCC2(CC(N3CCC(N4C[C@@H](F)C[C@@H]4CO)CC3)C2)C1 (single isomer, unassigned) [2-137 Isomer 2] | 39.8 | 111 | 1000 | 78 |  |  | 
9 | CCOC(=O)N1CCC2(CC(N3CCC(c4cnc(OC)c(C)c4)CC3)C2)C1 (single isomer, unassigned) [3-7 Isomer 2, ethyl 2-[4-(6-methoxy-5-methylpyridin-3-yl)piperidin-1-yl]-6-azaspiro[3.4]octane-6-carboxylate] | 100 | 39 | > 20000 | 40 |  |  | 
10 | CCOC(=O)N1CCC2(CC(N3CCC(N4C[C@@H](F)C[C@@H]4C(=O)OC)CC3)C2)C1 (single isomer, unassigned) [2-135 Isomer 2] | 12.6 | 90 | > 20000 | 15 |  |  | 
11 | CCOC(=O)N1CCC2(CC(N3CCC(c4nccn4CC(=O)NC)CC3)C2)C1 (single isomer, unassigned) [1-54 Isomer 2, ethyl 2-(4-{1-[2-(methylamino)-2-oxoethyl]-1H-imidazol-2-yl}piperidin-1-yl)-6-azaspiro[3.4]octane-6-carboxylate] | 794 | 74 | > 20000 | 51 |  |  | 
12 | CCOC(=O)N1CCC2(CC(N3CCC([C@@H]4CCCN4C(=O)N(C)CC(F)(F)F)CC3)C2)C1 (single isomer, unassigned) [2-55 Isomer 1] | 158 | 67 | > 20000 |  | 15 |  | 
13 | CCOC(=O)N1CCC2(CC(N3CCC(O)(c4ncc[nH]4)CC3)C2)C1 (single isomer, unassigned) [1-37 Isomer 2, ethyl 2-[4-hydroxy-4-(1 H-imidazol-2-yl)piperidin-1-yl]-6-azaspiro[3.4]octane-6-carboxylate] | 501 |  | 2510 |  |  | 126 | 78
14 | CCOC(=O)N1CCC2(CC(N3CCC(c4c(CC)cnn4C)CC3)C2)C1 (single isomer, unassigned) [1-60 Isomer 2, ethyl 2-[4-(4-ethyl-1-methyl-1H-pyrazol-5-yl)piperidin-1-yl]-6-azaspiro[3.4]octane-6-carboxylate] | 39.8 | 88 | 316 | 82 |  |  | 
15 | CCOC(=O)N1CCC2(CC(N3CCC(N4CC(F)(F)C[C@H]4C(=O)NC)CC3)C2)C1 (single isomer, unassigned) [2-93 Isomer 2] | > 20000 | 3 | > 20000 | 7 |  |  | 
16 | CCOC(=O)N1CCC2(CC(N3CCC([C@@H]4CCCN4C(=O)OCCF)CC3)C2)C1 (single isomer, unassigned) [2-47 Isomer 2] | 1000 | 63 | 6310 | 45 |  |  | 
17 | CCOC(=O)N1CCC2(CC(N3CCC([C@@H]4CCCN4CC)CC3)C2)C1 (single isomer, unassigned) [2-61 Isomer 2] | 501 | 40 | > 20000 | 10 |  |  | 
18 | CCOC(=O)N1CCC2(CC(N3CCC(N4CCCC4c4ccn[nH]4)CC3)C2)C1 (single isomer, unassigned) [2-126 Isomer 2, ethyl 2-{4-[2-(1H-pyrazol-5-yl)pyrrolidin-1-yl]piperidin-1-yl}-6-azaspiro[3.4]octane-6-carboxylate] | 79.4 | 60 | > 20000 | 15 |  |  | 
19 | CCOC(=O)N1CCC2(CC(N3CCC(c4nnn[nH]4)CC3)C2)C1 (single isomer, unassigned) [1-31 Isomer 2, ethyl 2-[4-(1H-tetrazol-5-yl)piperidin-1-yl]-6-azaspiro[3.4]octane-6-carboxylate] | 100 | 40 | 2510 | 34 |  |  | 
20 | [2H]C([2H])([2H])C([2H])([2H])OC(=O)N1CCC2(CC(N3CCC(c4ccnn4C)CC3)C2)C1 (single isomer, unassigned) [1-73 Isomer 2, (^2H5)ethyl 2-[4-(1-methyl-1H-pyrazol-5-yl)piperidin-1-yl]-6-azaspiro[3.4]octane-6-carboxylate] | 126 | 72 | > 20000 | 11 |  |  | 
21 | [2H]C([2H])([2H])COC(=O)N1CCC2(CC(N3CCC(c4ccnn4C)CC3)C2)C1 (single isomer, unassigned) [1-72 Isomer 2, (2,2,2-^2H3)ethyl 2-[4-(1-methyl-1H-pyrazol-5-yl)piperidin-1-yl]-6-azaspiro[3.4]octane-6-carboxylate] | 158 | 69 | > 20000 | 17 |  |  | 
22 | CCOC(=O)N1CCC2(CC(N3CCC(N4CC5CC5C4)CC3)C2)C1 (single isomer, unassigned) [2-105 Isomer 2, ethyl 2-[4-(3-azabicyclo[3.1.0]hex-3-yl)piperidin-1-yl]-6-azaspiro[3.4]octane-6-carboxylate] | 200 | 38 | > 20000 | 26 |  |  | 
23 | CCOC(=O)N1CCC2(CC(N3CCC(N4C(=O)CC[C@H]4CC)CC3)C2)C1 (single isomer, unassigned) [2-114 Isomer 2] | 7.94 | 114 | 126 | 103 |  |  | 
24 | CCOC(=O)N1CCC2(CC(N3CCC(N4C(=O)CCC4=O)CC3)C2)C1 (single isomer, unassigned) [2-112 Isomer 2, ethyl 2-[4-(2,5-dioxopyrrolidin-1-yl)piperidin-1-yl]-6-azaspiro[3.4]octane-6-carboxylate] | 251 | 63 | > 20000 | 7 |  |  | 
25 | CCOC(=O)N1CCC2(CC(N3CCC(C4CCCCN4C(=O)NC)CC3)C2)C1 (single isomer, unassigned) [4-20 Isomer 2, ethyl 2-[1-(methylcarbamoyl)-2,4′-bipiperidin-1′-yl]-6-azaspiro[3.4]octane-6-carboxylate] | 158 | 34 | > 20000 | 11 |  |  | 
26 | CCOC(=O)N1CCC2(CC(N3CCC(c4ccn(C)n4)CC3)C2)C1 (single isomer, unassigned) [1-22 Isomer 2, ethyl 2-[4-(1-methyl-1H-pyrazol-3-yl)piperidin-1-yl]-6-azaspiro[3.4]octane-6-carboxylate] | > 20000 | 20 | 200 | 47 |  |  | 
